# From patent US8314112B2 (Novartis AG, priority 2008, dated 2012)
# Molecular target: T1, human ALK5 (kinase domain, ALK5 T204D) (Homo sapiens, UniProt P36897, T204D)
# T1 construct: The kinase domain of human ALK5 (amino acids 200-503); made in house; host or cells: insect cells (baculovirus)
# T1 sequence (P36897 200-503 T204D): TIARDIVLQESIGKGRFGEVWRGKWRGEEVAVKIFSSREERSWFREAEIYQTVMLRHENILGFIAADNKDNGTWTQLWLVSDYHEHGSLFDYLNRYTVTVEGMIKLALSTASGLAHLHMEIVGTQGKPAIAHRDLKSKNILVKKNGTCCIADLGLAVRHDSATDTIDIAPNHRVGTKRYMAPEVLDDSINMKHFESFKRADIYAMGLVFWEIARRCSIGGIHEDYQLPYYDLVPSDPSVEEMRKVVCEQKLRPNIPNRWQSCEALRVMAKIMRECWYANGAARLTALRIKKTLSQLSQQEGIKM
# Experiment: ALK5 kinase assay ([33P] phosphate incorporation into casein)
# Assay type: biochemical
# Conditions: casein substrate, 1 μM unlabelled ATP
# Description: The kinase activity of ALK5 is assessed by measuring radiolabelled phosphate [33P] incorporation in to the generic substrate, casein. The kinase domain of human ALK5 (amino acids 200-503) is fused to an N-terminal histidine tag. The kinase activity of ALK5 is rendered constitutive via point mutation at amino acid 204 (threonine to aspartate modification, ALK5 T204D) and the kinase construct is engineered to be expressed from a baculovirus expression construct in insect cells. The purified, recombinantly-expressed histidine-tagged ALK5 T204D protein is dissolved at 5.4 mg/ml in 50 mM Tris-HCl pH 8.0, 150 mM NaCl, 5 mM DTT. ALK5 T204D is dissolved to 2.5 μg/ml in assay buffer (Assay buffer: 20 mM Tris-HCl pH 7.4, 10 mM MgCl2, 2 mM MnCl2) on the day of use.
# Test compounds and reference compounds are dissolved in assay buffer without DTT containing 5% (v/v) DMSO. Stock solutions of test and reference compounds are diluted in assay buffer with DTT (1.25 mM) containing 4.5% (v/v) DMSO. 10 μl of test or reference compound are added to the appropriate wells of 96 well U-bottomed plate. Total enzyme activity is determined by measuring ALK5 T204D activity in the absence of ALK5 kinase inhibitor reference compounds. Non-specific binding (NSB) is determined by measuring the activity of ALK5 T204D in the presence of ALK5 kinase inhibitor reference compounds. 10 μl of dephosphorylated casein stock solution (dephosphorylated casein is dissolved in ddH2O at 20 mg/ml) is added per well (200 μg/well final assay concentration). 20 μl of ALK5 T204D (2.5 μg/ml solution) is added per well (50 ng/well final assay concentration). The plates are left to incubate at room temperature for 10 minutes.
# 10 μl of ATP mix is added to the well to initiate the reaction (0.66 nM [^33P]ATP/1 μM unlabelled ATP/well final assay concentration). The ATP mix is prepared as follows, unlabelled ATP (3 mM) is dissolved in ddH2O and pH adjusted to 7.4. The stock concentration of [^33P]ATP is 10 μCi/μl. The appropriate volume of [^33P]ATP is added to unlabelled ATP solution such that the final assay concentration per well is 0.1 μCi. Following addition of the ATP mix, the plates are incubated at room temperature for 50 minutes. The kinase reaction is terminated by the addition of 50 μL Stop Buffer (20 mM Tris-HCl pH 7.4, 10 mM EDTA).
# 75 μl/well from the reaction plate is transferred to a Multiscreen-IP plate (MultiScreen-IP plates are prepared by added 50 μL of 70% (v/v) ethanol per well and incubated for 5 minutes at room temperature. The ethanol is removed by aspiration via a MultiScreen HTS Vaccum Manifold unit (Millipore, Cat no: MSVMHT500). The plates are washed twice by adding 200 μl/well ddH2O). The MultiScreen-IP plate is incubated at room temperature for 30 minutes to allowing binding of casein to the plate. The MultiScreen-IP plates are washed three times by adding 200 μl/well 100 mM phosphoric acid solution and the gasket is carefully removed from the back of the MultiScreen-IP plate and the plate dried in the oven for 30 minutes. The MultiScreen-IP plate is backsealed, 50 μL of Microscint™20 is added, then the plates are topsealed and radiolabelled casein detected and quantified on a TopCount™ plate-reader using the ^33P scintillation protocol.
row,Compound,IC50 [µM]
1,"Brc1cncc(-c2nc(-c3ccccn3)nc3[nH]ccc23)c1 [Example 44, 4-(5-Bromo-pyridin-3-yl)-2-pyridin-2-yl-7H-pyrrolo[2,3-d]pyrimidine]",0.424
2,"CN1CCN(Cc2cccc(-c3cncc(-c4nc(-c5ccccn5)nc5[nH]ccc45)c3)c2)CC1 [Example 45, 4-{5-[3-(4-Methyl-piperazin-1-ylmethyl)-phenyl]-pyridin-3-yl}-2-pyridin-2-yl-7H-pyrrolo[2,3-d]pyrimidine]",0.019
3,"Cc1cccc(-c2cc(-c3cccnc3)c3cc[nH]c3n2)n1 [Example 46, 6-(6-methyl-pyridin-2-yl)-4-pyridin-3-yl-1H-pyrrolo[2,3-b]pyridine]",0.264
4,"COc1cncc(-c2cc(-c3cccc(C)n3)nc3[nH]ccc23)c1 [Example 47, 4-(5-Methoxy-pyridin-3-yl)-6-(6-methyl-pyridin-2-yl)-1H-pyrrolo[2,3-b]pyridine]",0.028
5,"Cc1cccc(-c2nc(-c3cncc(N4CCCCC4)c3)c3cc[nH]c3n2)n1 [Example 48, 5′-[2-(6-Methyl-pyridin-2-yl)-7H-pyrrolo[2,3-d]pyrimidin-4-yl]-3,4,5,6-tetrahydro-2H-[1,3′]bipyridinyl]",1.34
6,"Cc1cccc(-c2nc(-c3cncc(N4CCC(O)CC4)c3)c3cc[nH]c3n2)n1 [Example 49, 5′-[2-(6-Methyl-pyridin-2-yl)-7H-pyrrolo[2,3-d]pyrimidin-4-yl]-3,4,5,6-tetrahydro-2H-[1,3′]bipyridinyl-4-ol]",1.08
7,"Cc1cccc(-c2nc(-c3cncc(NC(=O)CCN)c3)c3cc[nH]c3n2)n1 [Example 50, 3-amino-N-{5-[2-(6-methyl-pyridin-2-yl)-7H-pyrrolo[2,3-d]pyrimidin-4-yl]-pyridin-3-yl}-propionamide]",0.149
8,"Cc1cccc(-c2nc(-c3cncc(N4CCOCC4)c3)c3cc[nH]c3n2)n1 [Example 51, 2-(6-Methyl-pyridin-2-yl)-4-(5-morpholin-4-yl-pyridin-3-yl)-7H-pyrrolo[2,3-d]pyrimidine]",0.66
9,"CC(=O)NCCCC(=O)Nc1cncc(-c2nc(-c3cccc(C)n3)nc3[nH]ccc23)c1 [Example 52, 4-Acetylamino-N-{5-[2-(6-methyl-pyridin-2-yl)-7H-pyrrolo[2,3-d]pyrimidin-4-yl]-pyridin-3-yl}-butyramide]",0.435
10,"CC(=O)NCCC(=O)Nc1cncc(-c2nc(-c3cccc(C)n3)nc3[nH]ccc23)c1 [Example 53, 3-Acetylamino-N-{5-[2-(6-methyl-pyridin-2-yl)-7H-pyrrolo[2,3-d]pyrimidin-4-yl]-pyridin-3-yl}-propionamide]",0.57
11,"Cc1cccc(-c2nc(-c3cncc(NC(=O)CCO)c3)c3cc[nH]c3n2)n1 [Example 54, 3-Hydroxy-N-{5-[2-(6-methyl-pyridin-2-yl)-7H-pyrrolo[2,3-d]pyrimidin-4-yl]-pyridin-3-yl}-propionamide]",0.119
12,"Cc1cccc(-c2nc(-c3cnccc3C)c3cc[nH]c3n2)n1 [Example 55, 4-(4-Methyl-pyridin-3-yl)-2-(6-methyl-pyridin-2-yl)-7H-pyrrolo[2,3-d]pyrimidine]",0.813
13,"Cc1cccc(-c2cc(-c3cncc4ccccc34)c3cc[nH]c3n2)n1 [Example 56, 4-[6-(6-Methyl-pyridin-2-yl)-1H-pyrrolo[2,3-b]pyridin-4-yl]-isoquinoline]",< 0.07
14,"Cc1cccc(-c2cc(-c3cncc(N4CCN(C)CC4)c3)c3cc[nH]c3n2)n1 [Example 57, 4-[5-(4-Methyl-piperazin-1-yl)-pyridin-3-yl]-6-(6-methyl-pyridin-2-yl)-1H-pyrrolo[2,3-b]pyridine]",0.271
15,"CCOc1cncc(-c2cc(-c3cccc(C)n3)nc3[nH]ccc23)c1 [Example 58, 4-(5-Ethoxy-pyridin-3-yl)-6-(6-methyl-pyridin-2-yl)-1H-pyrrolo[2,3-b]pyridine]",0.056
16,"Cc1cccc(-c2nc(-c3cncc(-c4cccc(CN)c4)c3)c3cc[nH]c3n2)n1 [Example 59, 3-{5-[2-(6-Methyl-pyridin-2-yl)-7H-pyrrolo[2,3-d]pyrimidin-4-yl]-pyridin-3-yl}-benzylamine]",0.03
17,"COc1cccc(-c2cncc(-c3cc(-c4cccc(C)n4)nc4[nH]ccc34)c2)c1 [Example 60, 4-[5-(3-Methoxy-phenyl)-pyridin-3-yl]-6-(6-methyl-pyridin-2-yl)-1H-pyrrolo[2,3-b]pyridine]",0.096
18,"Cc1cccc(-c2nc(-c3cncc(-c4ccc(CN)cc4)c3)c3cc[nH]c3n2)n1 [Example 61, 4-{5-[2-(6-Methyl-pyridin-2-yl)-7H-pyrrolo[2,3-d]pyrimidin-4-yl]-pyridin-3-yl}-benzylamine]",0.029
19,"Cc1cccc(-c2cc(-c3cncc(NC(=O)CCN(C)C)c3)c3cc[nH]c3n2)n1 [Example 62, 3-Dimethylamino-N-{5-[6-(6-methyl-pyridin-2-yl)-1H-pyrrolo[2,3-b]pyridin-4-yl]-pyridin-3-yl}-propionamide]",0.04
20,"Cc1cccc(-c2cc(-c3cncc(-c4cccc(CN5CCN(C)CC5)c4)c3)c3cc[nH]c3n2)n1 [Example 63, 4-{5-[3-(4-Methyl-piperazin-1-ylmethyl)-phenyl]-pyridin-3-yl}-6-(6-methyl-pyridin-2-yl)-1H-pyrrolo[2,3-b]pyridine]",0.012
21,"Cc1cccc(-c2cc(-c3cncc(OC(C)C)c3)c3cc[nH]c3n2)n1 [Example 64, 4-(5-Isopropoxy-pyridin-3-yl)-6-(6-methyl-pyridin-2-yl)-1H-pyrrolo[2,3-b]pyridine]",0.25
22,"Cc1cccc(-c2cc(-c3cncc(-c4ccc(CN(C)C)cc4)c3)c3cc[nH]c3n2)n1 [Example 65, Dimethyl-(4-{5-[6-(6-methyl-pyridin-2-yl)-1H-pyrrolo[2,3-b]pyridin-4-yl]-pyridin-3-yl}-benzyl)-amine]",0.005
23,"Cc1cccc(-c2cc(-c3cncc(-c4cccc(CN(C)C)c4)c3)c3cc[nH]c3n2)n1 [Example 66, Dimethyl-(3-{5-[6-(6-methyl-pyridin-2-yl)-1H-pyrrolo[2,3-b]pyridin-4-yl]-pyridin-3-yl}-benzyl)-amine]",< 0.069
24,"Cc1cccc(-c2nc(-c3cncc(-c4cccc(CN5CCOCC5)c4)c3)c3cc[nH]c3n2)n1 [Example 67, 2-(6-Methyl-pyridin-2-yl)-4-[5-(3-morpholin-4-ylmethyl-phenyl)-pyridin-3-yl]-7H-pyrrolo[2,3-d]pyrimidine]",0.024
25,"CNCc1cccc(-c2cncc(-c3cc(-c4cccc(C)n4)nc4[nH]ccc34)c2)c1 [Example 68, Methyl-(3-{5-[6-(6-methyl-pyridin-2-yl)-1H-pyrrolo[2,3-b]pyridin-4-yl]-pyridin-3-yl}-benzyl)-amine]",< 0.032
26,"Cc1cccc(-c2nc(-c3cncc(-c4ccc(CN5CCOCC5)cc4)c3)c3cc[nH]c3n2)n1 [Example 69, 2-(6-Methyl-pyridin-2-yl)-4-[5-(4-morpholin-4-ylmethyl-phenyl)-pyridin-3-yl]-7H-pyrrolo[2,3-d]pyrimidine]",< 0.064
27,Cc1cccc(-c2nc(-c3cncc(-c4ccc(CO)cc4)c3)c3cc[nH]c3n2)n1 [Example 70],0.013
28,"Cc1cccc(-c2nc(-c3cncc(C4=CCCCC4)c3)c3cc[nH]c3n2)n1 [Example 72, 4-(5-Cyclohex-1-enyl-pyridin-3-yl)-2-(6-methyl-pyridin-2-yl)-7H-pyrrolo[2,3-d]pyrimidine]",0.198
